# Active and inactive are the calls of the source.
# Legend:
# NADPH oxidase 1 = molecular target: T1, NADPH oxidase 1 (Homo sapiens, UniProt Q9Y5S8); test: Late-stage luminescence-based cell-based dose response assay to identify inhibitors of NADPH oxidase 1 (NOX1): Purchased analogs 2.; type: functional
# T1 sequence (Q9Y5S8 whole entry): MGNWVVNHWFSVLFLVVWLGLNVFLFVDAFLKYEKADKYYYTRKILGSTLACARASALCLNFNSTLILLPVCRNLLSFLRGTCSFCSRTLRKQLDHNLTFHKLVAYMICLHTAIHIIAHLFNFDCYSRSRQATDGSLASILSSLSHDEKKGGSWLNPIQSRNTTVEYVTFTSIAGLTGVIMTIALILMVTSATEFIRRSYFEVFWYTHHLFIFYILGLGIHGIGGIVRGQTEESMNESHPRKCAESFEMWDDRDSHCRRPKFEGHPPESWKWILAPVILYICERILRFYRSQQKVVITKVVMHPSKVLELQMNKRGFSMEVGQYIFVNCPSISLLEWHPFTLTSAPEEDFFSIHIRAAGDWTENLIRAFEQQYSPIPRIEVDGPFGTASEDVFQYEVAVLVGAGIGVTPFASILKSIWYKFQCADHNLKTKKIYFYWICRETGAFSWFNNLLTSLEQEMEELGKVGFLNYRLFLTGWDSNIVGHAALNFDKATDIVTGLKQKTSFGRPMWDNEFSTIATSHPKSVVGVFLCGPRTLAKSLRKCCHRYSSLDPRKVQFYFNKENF
# [1] = molecular target: Voltage-gated inwardly rectifying potassium channel KCNH2 (Homo sapiens, UniProt Q12809); test: concentration-dependent hERG rescue from blockers – cell-based, thallium flux, dose response (AID 2121); type: ADME
# [2] = molecular target: T2, Orexin/Hypocretin receptor type 1 (Homo sapiens, UniProt O43613); test: (§1) Fluorescence-based cell-based high throughput dose response assay for antagonists of the orexin 1 receptor (OX1R; HCRTR1). [Related pubchem assays (depositor defined):AID434989, AID435008, AID463079, AID485270, AID492963, AID492964, AID492965, AID493232, AID504717, AID504718]; type: functional
# T2 sequence (O43613 whole entry): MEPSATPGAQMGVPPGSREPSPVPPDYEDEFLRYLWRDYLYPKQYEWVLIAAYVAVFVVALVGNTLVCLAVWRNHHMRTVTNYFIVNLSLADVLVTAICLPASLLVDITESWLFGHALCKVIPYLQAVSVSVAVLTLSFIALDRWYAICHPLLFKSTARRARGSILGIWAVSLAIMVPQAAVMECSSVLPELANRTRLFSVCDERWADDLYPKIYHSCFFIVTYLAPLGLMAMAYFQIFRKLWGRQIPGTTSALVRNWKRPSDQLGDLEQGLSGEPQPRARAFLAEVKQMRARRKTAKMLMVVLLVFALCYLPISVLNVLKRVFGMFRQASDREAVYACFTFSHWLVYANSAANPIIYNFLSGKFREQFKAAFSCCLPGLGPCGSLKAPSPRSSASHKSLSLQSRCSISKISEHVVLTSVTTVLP
# CHO-K1 = test: (§2) Counterscreen for antagonists of the orexin 1 receptor (OX1R; HCRTR1): Homogeneous time resolved fluorescence (HTRF)-based cell-based dose response assay to identify antagonists of the parental CHO-K1 cell line. [Related pubchem assays (depositor defined):AID434989, AID435008, AID463079, AID485270, AID492963, AID492964, AID492965, AID493232, AID504699, AID504701]; type: functional; conditions: Cricetulus griseus
# Orexin receptor type 2 [3] = molecular target: T3, Orexin receptor type 2 (Homo sapiens, UniProt O43614); test: Counterscreen assay for antagonists of the orexin 1 receptor (OX1R; HCRTR1): Fluorescence-based cell-based dose response assay for antagonists of the orexin 2 receptor (OX2R; HCRTR2), run by assay provider.; type: functional
# T3 sequence (O43614 whole entry): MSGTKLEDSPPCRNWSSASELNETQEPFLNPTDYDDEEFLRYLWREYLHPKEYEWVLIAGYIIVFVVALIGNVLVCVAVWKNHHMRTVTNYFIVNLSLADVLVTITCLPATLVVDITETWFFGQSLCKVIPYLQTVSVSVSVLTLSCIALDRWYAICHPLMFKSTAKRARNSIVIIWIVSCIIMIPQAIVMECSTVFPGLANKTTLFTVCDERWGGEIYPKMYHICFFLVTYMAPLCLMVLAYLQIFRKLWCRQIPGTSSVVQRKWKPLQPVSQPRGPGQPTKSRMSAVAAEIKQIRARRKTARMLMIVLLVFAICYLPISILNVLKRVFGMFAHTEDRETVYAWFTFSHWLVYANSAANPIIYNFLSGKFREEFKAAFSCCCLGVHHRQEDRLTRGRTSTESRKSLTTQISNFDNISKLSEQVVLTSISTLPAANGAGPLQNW
# [4] = as §2, with “Fluorescence-based” for “Homogeneous time resolved fluorescence (HTRF)-based”, “cell-based high throughput” for “cell-based”, “CHO” for “CHO-K1”; type: functional
# [5] = molecular target: T2, Orexin/Hypocretin receptor type 1; test: as §1, with “Homogeneous Time Resolved Fluorescence (HTRF)-based” for “Fluorescence-based”; type: functional
# Orexin receptor type 2 [6] = molecular target: T3, Orexin receptor type 2; test: Counterscreen assay for antagonists of the orexin 1 receptor (OX1R; HCRTR1): Homogeneous Time Resolved Fluorescence (HTRF)-based cell-based dose response assay for antagonists of the orexin 2 receptor (OX2R; HCRTR2), run by assay provider.; type: functional
# Ephrin type-A receptor 4 = Ephrin type-A receptor 4 (Mus musculus, UniProt Q03137); test: EphA4 ligand-binding antagonists – biochemical, colorimetric, mouse EphA4, primary screen (AID 689); type: functional
# [7] = DRD fibroblast viability loss – cell-based, non-viral oncogenic, luminescence, dose response (AID 1934); type: functional; conditions: Homo sapiens
# Paired box protein Pax-8 = Paired box protein Pax-8 (Homo sapiens, UniProt Q06710); test: PAX8 transcriptional activity inhibition in RMG-I – RMG-I cells, luciferase, cherry-pick, dose response (AID 687027); type: functional, cell-based;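 note: luciferase reporter driven by Pax8 target thyroperoxidase promoter measured by SteadyGlo luminescence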
# BJ [8] = test: BJ-TERT fibroblast viability loss – cell-based, RAS-independent, luminescence, dose response (AID 1933); type: functional; conditions: Homo sapiens
# BJ [9] = test: cells; type: functional, cell-based; conditions: Homo sapiens
# BJ [10] = test: BJ-TERT-LT-ST fibroblast viability loss – cell-based, RAS-independent, luminescence, dose response (AID 1935); type: functional; conditions: Homo sapiens;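 note: BJ fibroblasts immortalized with TERT plus LT and ST oncogenes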
# [11] = Luminescent dose response cell-based high throughput screening assay for inhibitors of the Janus kinase 2 mutant JAK2V617F. [Related pubchem assays: 1446 (Primary screen.), 1521 (Confirmation assay.), 1486 (Counter screen.)]; type: functional
# Jurkat = test: blockers of NF-kB activation in T cells – Jurkat, luciferase reporter, luminescence, B- and T-cell, dose response (AID 489004); type: functional, cell-based; conditions: Homo sapiens;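 note: NF-kB luciferase reporter Jurkat cells stimulated with PMA plus ionomycin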
# BJ [12] = test: growth inhibition of engineered Ras-driven BJ cells – cell-based, alamar blue fluorescence, cherrypicked samples, dose response (AID 2631); type: functional; conditions: Homo sapiens;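 note: confirmatory dose-response assay in RAS-dependent BJ fibroblasts engineered with TERT, LT and ST, with cytotoxicity read by fluorescence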
# [13] = general cell-killing toxicity readout – plate reader, dry powder samples, cytotoxicity control for PAX8 inhibitor project, dose response (AID 743021); type: functional, cell-based
# [14] = HEK-293T viability loss, compound-treated – cell-based, uHTS hits, cytotoxicity control for B/T-cell NF-kB inhibitor project, dose response (AID 489019); type: functional;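 note: IC50 reflects cytotoxicity as loss of cell viability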
# [15] = M. tuberculosis growth inhibition, HTS (AID 449762); type: functional
# [16] = microbe, parasite or virus in culture; type: functional; conditions: Mycobacterium tuberculosis
# Large T antigen = Large T antigen (Simian virus 40, UniProt P03070); type: functional, Betapolyomavirus macacae;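 note: Confirmatory-stage PubChem screen for compounds that inhibit SV40 T antigen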
# [17] = HIV-1 Vif–A3G interaction blockers – biochemical, TR-FRET, GST-Vif 1-94, biotin-A3G peptide, dose response retest, primary screen (AID 1117319); type: functional;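 note: TR-FRET signal of purified GST-Vif binding a biotinylated A3G peptide; inhibitors lower the FRET signal by blocking Vif and A3G binding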
# [18] = molecular target: T4, Mannose-6-phosphate isomerase (Homo sapiens, UniProt P34949); test: MPI enzyme activity inhibition – biochemical, fluorescence intensity, coupled assay, primary screen (AID 1209)
# T4 sequence (P34949 whole entry): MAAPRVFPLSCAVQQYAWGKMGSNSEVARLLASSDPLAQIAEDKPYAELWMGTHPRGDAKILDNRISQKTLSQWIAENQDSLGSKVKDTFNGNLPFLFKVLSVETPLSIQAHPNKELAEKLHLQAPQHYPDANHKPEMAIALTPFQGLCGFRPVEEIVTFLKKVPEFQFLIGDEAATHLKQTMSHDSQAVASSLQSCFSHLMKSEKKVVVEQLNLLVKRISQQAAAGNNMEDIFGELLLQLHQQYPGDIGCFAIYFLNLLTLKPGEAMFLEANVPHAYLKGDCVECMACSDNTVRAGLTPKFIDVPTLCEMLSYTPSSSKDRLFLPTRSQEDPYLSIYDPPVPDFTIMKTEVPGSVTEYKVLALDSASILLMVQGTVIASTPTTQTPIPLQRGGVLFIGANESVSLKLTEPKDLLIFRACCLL
# [19] = molecular target: T4, Mannose-6-phosphate isomerase; test: MPI inhibition at elevated mannose 6-phosphate – biochemical, fluorescence intensity, high mannose 6-phosphate, primary screen (AID 1220)
# [20] = viability loss in Vero cells – cytotoxicity control for Vif-APOBEC3G degradation inhibitor project, dose response (AID 1117358); type: functional; conditions: Vero
# Ephrin type-A receptor 4, sequence (Q03137 whole entry): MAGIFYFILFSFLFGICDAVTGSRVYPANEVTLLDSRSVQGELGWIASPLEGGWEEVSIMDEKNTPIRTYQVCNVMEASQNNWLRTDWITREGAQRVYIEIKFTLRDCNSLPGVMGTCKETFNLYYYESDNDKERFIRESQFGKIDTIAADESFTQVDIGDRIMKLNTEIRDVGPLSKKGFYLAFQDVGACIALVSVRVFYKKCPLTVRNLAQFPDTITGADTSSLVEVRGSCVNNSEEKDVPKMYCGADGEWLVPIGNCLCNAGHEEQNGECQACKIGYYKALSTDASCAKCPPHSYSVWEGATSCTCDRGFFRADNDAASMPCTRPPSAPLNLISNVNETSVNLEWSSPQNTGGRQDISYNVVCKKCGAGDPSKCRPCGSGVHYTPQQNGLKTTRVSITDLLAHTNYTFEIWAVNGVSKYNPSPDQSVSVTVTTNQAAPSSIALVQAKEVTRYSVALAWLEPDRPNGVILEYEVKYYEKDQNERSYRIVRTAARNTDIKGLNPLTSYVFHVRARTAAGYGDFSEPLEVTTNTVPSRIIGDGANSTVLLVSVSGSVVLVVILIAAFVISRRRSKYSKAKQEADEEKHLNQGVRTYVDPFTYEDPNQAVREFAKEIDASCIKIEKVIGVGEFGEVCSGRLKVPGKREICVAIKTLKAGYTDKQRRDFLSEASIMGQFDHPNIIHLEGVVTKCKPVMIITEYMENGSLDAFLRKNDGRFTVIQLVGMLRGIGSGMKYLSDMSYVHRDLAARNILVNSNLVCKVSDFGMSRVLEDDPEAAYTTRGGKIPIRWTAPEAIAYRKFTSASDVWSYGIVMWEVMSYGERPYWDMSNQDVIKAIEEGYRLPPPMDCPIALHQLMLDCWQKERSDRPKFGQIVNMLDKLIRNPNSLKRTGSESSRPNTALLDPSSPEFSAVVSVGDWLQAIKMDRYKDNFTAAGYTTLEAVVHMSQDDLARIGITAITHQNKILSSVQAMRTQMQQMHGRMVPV
# Voltage-gated inwardly rectifying potassium channel KCNH2, sequence (Q12809 whole entry): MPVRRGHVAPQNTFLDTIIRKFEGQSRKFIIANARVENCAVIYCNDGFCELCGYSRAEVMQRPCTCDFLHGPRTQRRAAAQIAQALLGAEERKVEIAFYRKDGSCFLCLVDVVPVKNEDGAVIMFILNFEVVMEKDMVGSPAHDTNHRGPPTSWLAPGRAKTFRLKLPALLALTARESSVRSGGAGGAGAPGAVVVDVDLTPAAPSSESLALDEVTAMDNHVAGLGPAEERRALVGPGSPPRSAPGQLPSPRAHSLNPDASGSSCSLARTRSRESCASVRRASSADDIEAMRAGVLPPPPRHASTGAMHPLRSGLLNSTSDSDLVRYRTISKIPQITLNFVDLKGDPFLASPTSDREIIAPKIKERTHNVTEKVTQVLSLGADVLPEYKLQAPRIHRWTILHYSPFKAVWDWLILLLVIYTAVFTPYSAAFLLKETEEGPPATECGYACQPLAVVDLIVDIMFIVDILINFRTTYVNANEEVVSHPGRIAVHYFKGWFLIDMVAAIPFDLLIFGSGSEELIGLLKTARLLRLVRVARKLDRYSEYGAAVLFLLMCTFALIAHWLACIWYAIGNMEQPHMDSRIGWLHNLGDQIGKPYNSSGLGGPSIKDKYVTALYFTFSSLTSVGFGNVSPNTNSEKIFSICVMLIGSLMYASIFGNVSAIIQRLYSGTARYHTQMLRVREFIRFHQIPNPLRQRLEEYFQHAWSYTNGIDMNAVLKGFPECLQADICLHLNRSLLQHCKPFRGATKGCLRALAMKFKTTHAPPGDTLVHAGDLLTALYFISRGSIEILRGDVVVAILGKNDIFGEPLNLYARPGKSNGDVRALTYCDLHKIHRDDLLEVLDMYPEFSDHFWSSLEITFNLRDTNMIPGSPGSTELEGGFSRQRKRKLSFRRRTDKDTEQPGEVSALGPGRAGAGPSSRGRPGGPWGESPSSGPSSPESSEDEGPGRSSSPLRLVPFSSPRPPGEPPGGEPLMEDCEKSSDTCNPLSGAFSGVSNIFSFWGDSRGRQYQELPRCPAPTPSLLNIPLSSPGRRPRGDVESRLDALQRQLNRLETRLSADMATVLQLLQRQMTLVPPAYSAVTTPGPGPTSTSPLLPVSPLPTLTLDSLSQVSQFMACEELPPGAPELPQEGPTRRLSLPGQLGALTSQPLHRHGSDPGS
# Large T antigen, sequence (P03070 whole entry): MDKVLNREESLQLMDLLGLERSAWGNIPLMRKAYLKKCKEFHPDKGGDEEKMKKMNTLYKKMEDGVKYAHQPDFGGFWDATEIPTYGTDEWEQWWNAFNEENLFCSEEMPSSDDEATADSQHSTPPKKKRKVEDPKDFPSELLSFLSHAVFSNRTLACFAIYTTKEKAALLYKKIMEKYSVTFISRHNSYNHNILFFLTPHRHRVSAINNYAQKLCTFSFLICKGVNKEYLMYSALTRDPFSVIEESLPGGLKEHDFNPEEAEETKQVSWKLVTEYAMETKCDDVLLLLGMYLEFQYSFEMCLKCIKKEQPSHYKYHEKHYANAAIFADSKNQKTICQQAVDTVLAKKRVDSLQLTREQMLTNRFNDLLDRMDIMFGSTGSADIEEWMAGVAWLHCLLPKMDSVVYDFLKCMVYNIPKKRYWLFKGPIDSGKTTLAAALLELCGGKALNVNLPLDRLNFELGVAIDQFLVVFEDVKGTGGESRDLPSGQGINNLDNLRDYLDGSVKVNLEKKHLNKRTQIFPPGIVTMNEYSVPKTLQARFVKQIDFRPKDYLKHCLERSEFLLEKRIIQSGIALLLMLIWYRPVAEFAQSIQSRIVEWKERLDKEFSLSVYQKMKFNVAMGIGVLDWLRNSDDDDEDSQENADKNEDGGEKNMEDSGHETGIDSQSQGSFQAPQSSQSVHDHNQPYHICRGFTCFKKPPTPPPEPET
# Paired box protein Pax-8, sequence (Q06710 whole entry): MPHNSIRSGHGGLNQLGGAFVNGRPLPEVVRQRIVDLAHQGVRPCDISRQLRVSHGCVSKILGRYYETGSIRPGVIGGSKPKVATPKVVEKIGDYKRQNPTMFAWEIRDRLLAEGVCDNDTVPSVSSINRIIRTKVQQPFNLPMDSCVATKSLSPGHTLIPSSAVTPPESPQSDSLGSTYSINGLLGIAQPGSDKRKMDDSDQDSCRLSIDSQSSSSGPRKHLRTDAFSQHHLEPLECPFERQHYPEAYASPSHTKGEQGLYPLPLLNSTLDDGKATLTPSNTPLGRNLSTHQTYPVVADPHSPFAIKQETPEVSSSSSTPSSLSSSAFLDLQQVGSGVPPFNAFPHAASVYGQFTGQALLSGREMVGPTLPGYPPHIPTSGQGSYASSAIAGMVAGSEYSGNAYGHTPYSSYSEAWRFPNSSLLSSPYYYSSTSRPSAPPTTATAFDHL
structure (smiles),measurement,setting,value
CC=C(NNc1c(Cl)c(Cl)nc(C(=O)O)c1Cl)c1ccccc1,IC50,NADPH oxidase 1,> 17 µM (not active)
O=C(NC(=S)Nc1nc(-c2ccccc2)cs1)c1ccco1,EC50,[1],0.15 µM (active)
same,IC50,[2],> 49.7 µM (inactive)
same,IC50,CHO-K1,> 66.2 µM (inactive)
same,IC50,Orexin receptor type 2 [3],> 88.8 µM (inactive)
same,IC50,[4],> 49.7 µM (inactive)
same,IC50,[5],7.37 µM (active)
same,IC50,Orexin receptor type 2 [6],> 50 µM (inactive)
Cc1ccc(C)c(OCc2nnc(N)s2)c1,IC50,Ephrin type-A receptor 4,> 100 µM (not active)
O=C(CCl)/N=c1\sccn1Cc1ccccc1Cl,EC50,[7],0.691 µM (active)
same,AC50,Paired box protein Pax-8,1.64 µM (active)
same,EC50,BJ [8],0.403 µM (inconclusive)
same,EC50,BJ [9],1.33 µM (inconclusive)
same,EC50,BJ [10],12.1 µM (inconclusive)
same,IC50,[11],0.442 µM (active)
same,IC50,Jurkat,0.31 µM (active)
same,EC50,BJ [12],0.343 µM (active)
same,AC50,[13],2.74 µM (active)
same,IC50,[14],> 80 µM (inactive)
O=C(N/N=C/c1cn(-c2ccccc2)nc1-c1cccs1)c1ccc(Cl)cc1,IC50,[15],> 100 µM (active)
same,CC50,[16],23.1 µM (active)
Oc1ccc(/C=N/NP(=S)(c2ccccc2)c2ccccc2)cc1O,IC50,Large T antigen,54.9 µM (active)
same,IC50,[17],> 100 µM (active)
same,IC50,[18],> 50 µM (not active)
same,IC50,[19],> 50 µM (not active)
same,CC50,[20],> 40 µM (active)

# — ChEMBL document CHEMBL1201862, “PubChem BioAssay data set” (2004)
